Data: US20210070748A1, “INHIBITORS OF BRUTONS TYROSINE KINASE” (Pharmacyclics LLC, priority 2015, published 2021)
Read-outs that look alike come from different tables or passages of the source.

What was measured:
Type in all cases: biochemical
JAK3 = target: T1, JAK3 (Homo sapiens, UniProt P52333); test: Inhibition of a panel of kinases, in vitro HotSpot kinase assay: JAK3; conditions: for IC50: 1 μM ATP, read-out: IC50 JAK3; for JAK3* IC50 relative to Btk IC50 value: fold relative to Btk IC50 value
T1 sequence (P52333 1-1124): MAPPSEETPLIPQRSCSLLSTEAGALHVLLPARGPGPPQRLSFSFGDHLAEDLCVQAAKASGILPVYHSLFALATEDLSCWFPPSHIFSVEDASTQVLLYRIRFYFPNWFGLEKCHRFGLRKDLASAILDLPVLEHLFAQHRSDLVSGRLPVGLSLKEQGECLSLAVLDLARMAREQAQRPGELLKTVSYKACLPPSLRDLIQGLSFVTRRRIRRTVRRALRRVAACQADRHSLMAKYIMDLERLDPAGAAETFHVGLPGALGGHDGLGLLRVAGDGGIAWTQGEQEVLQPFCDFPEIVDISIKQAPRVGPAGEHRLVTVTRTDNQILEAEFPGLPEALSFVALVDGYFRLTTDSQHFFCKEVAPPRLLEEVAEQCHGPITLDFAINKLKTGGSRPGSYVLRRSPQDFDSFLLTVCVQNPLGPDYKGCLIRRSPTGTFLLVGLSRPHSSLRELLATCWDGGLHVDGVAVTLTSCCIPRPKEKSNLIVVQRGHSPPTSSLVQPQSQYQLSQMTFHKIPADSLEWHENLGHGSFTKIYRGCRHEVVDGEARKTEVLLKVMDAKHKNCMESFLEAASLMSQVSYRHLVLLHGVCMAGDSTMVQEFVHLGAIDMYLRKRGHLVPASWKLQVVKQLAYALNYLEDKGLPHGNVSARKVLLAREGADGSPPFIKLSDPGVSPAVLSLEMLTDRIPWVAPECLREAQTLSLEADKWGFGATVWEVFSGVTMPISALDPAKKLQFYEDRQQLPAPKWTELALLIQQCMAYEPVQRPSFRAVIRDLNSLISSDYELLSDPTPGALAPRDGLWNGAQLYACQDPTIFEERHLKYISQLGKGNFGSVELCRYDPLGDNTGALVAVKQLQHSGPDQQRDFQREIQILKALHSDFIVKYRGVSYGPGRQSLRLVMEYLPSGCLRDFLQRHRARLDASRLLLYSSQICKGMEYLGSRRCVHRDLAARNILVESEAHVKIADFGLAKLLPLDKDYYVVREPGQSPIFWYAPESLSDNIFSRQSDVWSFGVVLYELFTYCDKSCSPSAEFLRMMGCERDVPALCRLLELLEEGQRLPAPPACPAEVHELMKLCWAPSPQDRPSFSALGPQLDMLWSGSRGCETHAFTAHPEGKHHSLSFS

EGFR = EGFR (Homo sapiens, UniProt P00533); test: Inhibition of a panel of kinases, in vitro HotSpot kinase assay: EGFR; conditions: for IC50: 1 μM ATP; for EGFR* IC50 relative to Btk IC50 value: fold relative to Btk IC50 value
EGFR, sequence (P00533 25-1210): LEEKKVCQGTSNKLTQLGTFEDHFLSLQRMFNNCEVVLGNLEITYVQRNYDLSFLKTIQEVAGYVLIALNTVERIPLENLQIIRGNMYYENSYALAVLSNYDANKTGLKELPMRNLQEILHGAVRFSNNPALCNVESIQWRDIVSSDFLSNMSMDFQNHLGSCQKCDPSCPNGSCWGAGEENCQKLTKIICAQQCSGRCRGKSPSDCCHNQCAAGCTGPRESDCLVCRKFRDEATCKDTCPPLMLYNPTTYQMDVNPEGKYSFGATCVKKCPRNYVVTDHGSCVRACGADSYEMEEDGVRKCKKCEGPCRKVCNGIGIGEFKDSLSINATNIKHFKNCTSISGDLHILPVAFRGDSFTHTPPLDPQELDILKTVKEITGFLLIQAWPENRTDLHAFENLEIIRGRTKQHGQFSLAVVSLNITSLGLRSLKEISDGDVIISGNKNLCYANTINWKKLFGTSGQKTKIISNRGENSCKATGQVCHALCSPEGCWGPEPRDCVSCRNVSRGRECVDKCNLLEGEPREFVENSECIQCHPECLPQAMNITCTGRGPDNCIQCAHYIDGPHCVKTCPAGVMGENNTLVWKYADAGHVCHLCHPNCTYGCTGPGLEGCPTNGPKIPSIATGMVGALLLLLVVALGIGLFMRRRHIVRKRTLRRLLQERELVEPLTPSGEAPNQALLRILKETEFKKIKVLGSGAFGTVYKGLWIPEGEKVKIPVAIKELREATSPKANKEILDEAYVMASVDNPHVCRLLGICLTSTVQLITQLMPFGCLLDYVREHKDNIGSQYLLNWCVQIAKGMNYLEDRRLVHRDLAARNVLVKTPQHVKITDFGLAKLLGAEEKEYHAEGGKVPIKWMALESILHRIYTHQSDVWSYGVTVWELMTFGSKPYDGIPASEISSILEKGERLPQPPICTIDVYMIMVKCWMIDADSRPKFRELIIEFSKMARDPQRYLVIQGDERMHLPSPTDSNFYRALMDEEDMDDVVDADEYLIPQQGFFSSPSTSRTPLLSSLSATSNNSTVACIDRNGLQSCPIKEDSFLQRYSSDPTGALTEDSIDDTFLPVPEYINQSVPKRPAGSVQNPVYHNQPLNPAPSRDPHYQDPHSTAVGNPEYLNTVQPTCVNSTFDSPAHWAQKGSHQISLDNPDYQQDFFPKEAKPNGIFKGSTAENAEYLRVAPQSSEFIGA
Protocol: (§1) The degree of inhibition of a panel of kinases is determined using the in vitro HotSpot kinase assay (purified enzymes, ^33P-ATP, an appropriate substrate and 1 μM ATP).

TEC = target: T2, TEC (Homo sapiens, UniProt P42680); test: Inhibition of a panel of kinases, in vitro HotSpot kinase assay: TEC; conditions: for IC50: 1 μM ATP; for TEC* IC50 relative to Btk IC50 value: fold relative to Btk IC50 value
T2 sequence (P42680 1-631): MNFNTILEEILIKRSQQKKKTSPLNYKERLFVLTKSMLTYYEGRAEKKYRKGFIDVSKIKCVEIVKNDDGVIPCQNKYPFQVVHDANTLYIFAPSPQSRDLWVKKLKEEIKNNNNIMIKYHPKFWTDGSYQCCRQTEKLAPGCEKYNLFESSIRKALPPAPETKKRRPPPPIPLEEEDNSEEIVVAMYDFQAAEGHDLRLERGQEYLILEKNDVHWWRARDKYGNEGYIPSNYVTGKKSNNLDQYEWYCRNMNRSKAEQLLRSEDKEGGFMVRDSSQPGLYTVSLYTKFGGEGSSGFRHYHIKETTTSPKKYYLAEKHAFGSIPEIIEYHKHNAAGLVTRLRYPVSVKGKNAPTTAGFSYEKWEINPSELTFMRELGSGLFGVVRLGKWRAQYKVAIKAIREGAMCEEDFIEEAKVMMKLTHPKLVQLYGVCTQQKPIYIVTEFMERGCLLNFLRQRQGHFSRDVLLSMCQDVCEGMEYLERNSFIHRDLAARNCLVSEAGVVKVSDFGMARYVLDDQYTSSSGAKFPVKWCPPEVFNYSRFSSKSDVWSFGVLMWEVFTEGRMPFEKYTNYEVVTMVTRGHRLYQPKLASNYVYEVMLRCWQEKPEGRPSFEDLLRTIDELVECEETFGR
Protocol: as §1

ITK = target: T3, ITK (Homo sapiens, UniProt Q08881); test: Inhibition of a panel of kinases, in vitro HotSpot kinase assay: ITK; conditions: for IC50: 1 μM ATP; for ITK* IC50 relative to Btk IC50 value: fold relative to Btk IC50 value
T3 sequence (Q08881 1-620): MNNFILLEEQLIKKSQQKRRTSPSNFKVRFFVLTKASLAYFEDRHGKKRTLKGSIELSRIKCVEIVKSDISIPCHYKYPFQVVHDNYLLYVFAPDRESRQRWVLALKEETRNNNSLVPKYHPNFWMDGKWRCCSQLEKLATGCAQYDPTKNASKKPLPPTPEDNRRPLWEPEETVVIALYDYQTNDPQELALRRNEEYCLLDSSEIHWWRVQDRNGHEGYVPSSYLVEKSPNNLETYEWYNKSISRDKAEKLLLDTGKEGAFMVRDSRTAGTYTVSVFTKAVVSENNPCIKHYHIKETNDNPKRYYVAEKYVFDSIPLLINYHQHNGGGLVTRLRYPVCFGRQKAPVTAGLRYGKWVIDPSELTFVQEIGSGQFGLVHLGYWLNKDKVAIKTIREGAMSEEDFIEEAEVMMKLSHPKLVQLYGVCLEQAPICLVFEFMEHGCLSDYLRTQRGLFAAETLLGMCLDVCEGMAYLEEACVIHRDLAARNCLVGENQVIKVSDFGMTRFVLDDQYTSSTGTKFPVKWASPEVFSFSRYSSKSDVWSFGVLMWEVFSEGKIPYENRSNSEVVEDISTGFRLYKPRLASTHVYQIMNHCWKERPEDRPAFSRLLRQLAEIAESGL
Protocol: as §1

SRC = SRC (Homo sapiens, UniProt P12931); test: Inhibition of a panel of kinases, in vitro HotSpot kinase assay: SRC; conditions: for IC50: 1 μM ATP; for SRC* IC50 relative to Btk IC50 value: fold relative to Btk IC50 value
SRC, sequence (P12931 whole entry): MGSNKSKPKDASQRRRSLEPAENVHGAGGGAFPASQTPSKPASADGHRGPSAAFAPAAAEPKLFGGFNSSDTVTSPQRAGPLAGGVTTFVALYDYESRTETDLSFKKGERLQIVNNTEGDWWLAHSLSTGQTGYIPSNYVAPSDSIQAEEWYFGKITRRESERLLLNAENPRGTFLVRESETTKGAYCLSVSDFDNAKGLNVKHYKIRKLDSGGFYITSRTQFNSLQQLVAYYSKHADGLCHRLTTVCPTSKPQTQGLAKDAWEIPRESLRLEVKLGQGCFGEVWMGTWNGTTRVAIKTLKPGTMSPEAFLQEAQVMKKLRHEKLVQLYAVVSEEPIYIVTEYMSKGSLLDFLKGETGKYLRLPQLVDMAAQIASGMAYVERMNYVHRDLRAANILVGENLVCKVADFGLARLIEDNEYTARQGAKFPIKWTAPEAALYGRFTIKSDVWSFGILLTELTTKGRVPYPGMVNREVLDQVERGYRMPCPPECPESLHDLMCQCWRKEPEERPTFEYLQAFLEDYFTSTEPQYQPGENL
Protocol: as §1

LCK = LCK (Homo sapiens, UniProt P06239); test: Inhibition of a panel of kinases, in vitro HotSpot kinase assay: LCK; conditions: for IC50: 1 μM ATP, read-out: IC50 LCK; for LCK* IC50 relative to Btk IC50 value: fold relative to Btk IC50 value
LCK, sequence (P06239 whole entry): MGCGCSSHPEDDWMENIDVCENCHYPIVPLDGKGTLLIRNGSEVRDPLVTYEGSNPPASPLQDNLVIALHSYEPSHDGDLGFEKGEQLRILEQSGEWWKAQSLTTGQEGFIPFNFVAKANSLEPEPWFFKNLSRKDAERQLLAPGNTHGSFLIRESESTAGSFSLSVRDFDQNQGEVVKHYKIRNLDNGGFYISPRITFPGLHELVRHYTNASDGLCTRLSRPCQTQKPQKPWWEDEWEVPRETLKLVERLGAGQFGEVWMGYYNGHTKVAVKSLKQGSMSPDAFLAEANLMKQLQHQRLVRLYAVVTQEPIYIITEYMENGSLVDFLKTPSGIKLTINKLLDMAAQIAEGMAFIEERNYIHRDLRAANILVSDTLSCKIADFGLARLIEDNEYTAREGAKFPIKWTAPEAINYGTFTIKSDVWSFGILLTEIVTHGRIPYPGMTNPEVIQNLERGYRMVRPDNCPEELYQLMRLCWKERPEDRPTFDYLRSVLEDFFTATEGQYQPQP

IC50 (JAK3; Table 13, A compounds) [µM]	IC50 (EGFR; Table 13, A compounds) [µM]	IC50 (TEC; Table 13, A compounds) [µM]	IC50 (ITK; Table 13, A compounds) [µM]	IC50 (SRC; Table 13, A compounds) [µM]	IC50 (LCK; Table 13, A compounds) [µM]	Structure (SMILES)	also measured
1 to 10	1 to 10	0.1 to 1	1 to 10	0.1 to 1	0.1 to 1	C[C@@H]1[C@H](NC(=O)N(C)C)CCCN1c1cnc(C(N)=O)c(Nc2ccc(C(=O)N3CCN(C)CC3)cc2)n1 [Example A-98, 5-[(2R,3R)-3-[(dimethylcarbamoyl)amino]-2-methylpiperidin-1-yl]-3-{[4-(4-methylpiperazine-1-carbonyl)phenyl]amino}pyrazine-2-carboxamide]	
1 to 10	> 10	0.01 to 0.1	0.1 to 1	0.1 to 1	0.1 to 1	CN1CCN(c2ccc(Nc3nc(N4CCC[C@@H](n5ccc6cc(C7CC7)ccc6c5=O)C4)cnc3C(N)=O)cc2)CC1 [Example A-99, 5-[(3R)-3-(6-cyclo-propyl-1-oxo-1,2-dihydroisoquinolin-2-yl)piperidin-1-yl]-3-{[4-(4-methylpiperazin-1-yl)phenyl]amino}pyrazine-2-carboxamide]	
0.1 to 1	0.1 to 1	0.1 to 1	0.1 to 1	0.01 to 0.1	0.1 to 1	C[C@@H]1[C@H](NC(=O)N(C)C)CCCN1c1cnc(C(N)=O)c(Nc2ccc(N3CCN(C)CC3)cc2)n1 [Example A-100, 5-[(2R,3R)-3-[(dimethylcarbamoyl)amino]-2-methylpiperidin-1-yl]-3-{[4-(4-methylpiperazin-1-yl)phenyl]amino}pyrazine-2-carboxamide]	
> 10	1 to 10	1 to 10	> 10	1 to 10	1 to 10	Cc1c(Nc2nc(N3CCC[C@@H](NC(=O)c4ccc(C5CC5)cc4)[C@H]3C)cnc2C(N)=O)cnn1C [Example A-191, 5-((2R,3)R-3-(4-cyclopropylbenzamido)-2-methylpiperidin-1-yl)-3-(1,5-dimethyl-1H-pyrazol-4-ylamino)pyrazine-2-carboxamide]	
> 10	1 to 10	1 to 10	> 10	> 10	> 10	Cc1nn(C)cc1Nc1nc(N2CCC[C@@H](NC(=O)c3ccc(C4CC4)cc3)[C@H]2C)cnc1C(N)=O [Example A-192, 5-((2R,3R)-3-(4-cyclopropylbenzamido)-2-methylpiperidin-1-yl)-3-(1,3-dimethyl-1H-pyrazol-4-ylamino)pyrazine-2-carboxamide]	
0.1 to 1	0.1 to 1	0.01 to 0.1	0.1 to 1	0.1 to 1	0.1 to 1	C[C@@H]1[C@H](NC(=O)c2cc3c(n2C)CC(C)(C)C3)CCCN1c1cnc(C(N)=O)c(Nc2cnn(C)c2)n1 [Example A-193, N-((2R,3R)-1-(5-carbamoyl-6-(1-methyl-1H-pyrazol-4-ylamino)pyrazin-2-yl)-2-methylpiperidin-3-yl)-1,5,5-trimethyl-1,4,5,6-tetrahydrocyclo-penta[b]pyrrole-2-carboxamide]	
						C[C@@H]1[C@H](NC(=O)c2ccc(C3CC3)cc2)CCCN1c1cnc(C(N)=O)c(Nc2cnn(C(F)F)c2)n1 [Example A-198, 5-[(2R,3R)-3-(4-cyclopropylbenzamido)-2-methylpiperidin-1-yl]-3-{[1-(difluoromethyl)-1H-pyrazol-4-yl]amino}pyrazine-2-carboxamide]	JAK3* IC50 relative to Btk IC50 value (JAK3): 1276x; EGFR* IC50 relative to Btk IC50 value (EGFR): 1276x; TEC* IC50 relative to Btk IC50 value (TEC): 3x; ITK* IC50 relative to Btk IC50 value (ITK): 133x; SRC* IC50 relative to Btk IC50 value (SRC): 69x; LCK* IC50 relative to Btk IC50 value (LCK): 112x
						C[C@@H]1[C@H](NC(=O)c2ccc(C(C)(C)O)cc2)CCCN1c1cnc(C(N)=O)c(Nc2cnn(C)c2)n1 [Example A-200, 5-((2R,3R)-3-(4-(2-hydroxypropan-2-yl)benzamido)-2-methyl-piperidin-1-yl)-3-(1-methyl-1H-pyrazol-4-yl-amino)pyrazine-2-carboxamide]	JAK3* IC50 relative to Btk IC50 value (JAK3): 411x; EGFR* IC50 relative to Btk IC50 value (EGFR): 380x; TEC* IC50 relative to Btk IC50 value (TEC): 3x; ITK* IC50 relative to Btk IC50 value (ITK): 99x; SRC* IC50 relative to Btk IC50 value (SRC): 40x; LCK* IC50 relative to Btk IC50 value (LCK): 88x
						C[C@@H]1[C@H](NC(=O)c2ccc(C3CC3)cc2)CCCN1c1nnc(C(N)=O)c(Nc2cnn(C)c2)n1 [Example A-201, 3-[(2R,3R)-3-(4-cyclopropylbenzamido)-2-methylpiperidin-1-yl]-5-[(1-methyl-1H-pyrazol-4-yl)amino]-1,2,4-triazine-6-carboxamide]	JAK3* IC50 relative to Btk IC50 value (JAK3): 1102x; EGFR* IC50 relative to Btk IC50 value (EGFR): 2962x; TEC* IC50 relative to Btk IC50 value (TEC): 8x; ITK* IC50 relative to Btk IC50 value (ITK): 234x; SRC* IC50 relative to Btk IC50 value (SRC): 47x; LCK* IC50 relative to Btk IC50 value (LCK): 49x
						C=CC(=O)N1CCC[C@@H](Nc2nnc(C(N)=O)c(Nc3ccc(C(C)(C)C)cc3)n2)C1 [Example C-40, (R)-3-(1-acryloylpiperidin-3-ylamino)-5-(4-tert-butylphenylamino)-1,2,4-triazine-6-carboxamide]	IC50 (JAK3; Table 15, C compounds): < 0.01 µM; IC50 (EGFR; Table 15, C compounds): ≤ 0.01 µM; IC50 (TEC; Table 15, C compounds): ≤ 0.01 µM; IC50 (ITK; Table 15, C compounds): ≤ 0.01 µM; IC50 (LCK; Table 15, C compounds): 0.1 to 1 µM
						C=CC(=O)N1CCC[C@@H](N(C)c2cnc(C(N)=O)c(Nc3ccc(C(C)C)cc3)n2)C1 [Example C-42, (R)-5-((1-acryloylpiperidin-3-yl)(methyl)amino)-3-(4-isopropylphenylamino) pyrazine-2-carboxamide]	IC50 (JAK3; Table 15, C compounds): 0.01 to 0.1 µM; IC50 (TEC; Table 15, C compounds): ≤ 0.01 µM; IC50 (ITK; Table 15, C compounds): 0.01 to 0.1 µM; IC50 (SRC; Table 15, C compounds): 0.1 to 1 µM; IC50 (LCK; Table 15, C compounds): 1 to 10 µM
